Holding throughout (assay): Nanosyn kinase profiling
Common to all, as to type: biochemical

For one assay, the target named is T1, ABL1 (Homo sapiens, UniProt P00519).
T1 construct: purchased Nanosyn (enzymatic panel); SGC in-house recombinant human kinases (DSF panel); Invitrogen (ALK1-6)
The settings on record: for Percentage inhibition: 0.1 µM; for inhibition at 1 µM: 1 µM inhibitor. In a few lines:
(§1)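 Percent inhibition of each kinase was measured with the inhibitor at 0.1 µM and at 1 µM, as part of a 200-kinase human selectivity panel.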

Another assay has as its target T2, CAMK2α (Homo sapiens, UniProt Q9UQM7).
T2 construct: purchased Nanosyn (enzymatic panel); SGC in-house recombinant human kinases (DSF panel); Invitrogen (ALK1-6)
The settings on record: read-out: Percentage inhibition; for inhibition at 0.1 µM: 0.1 µM inhibitor; for inhibition at 1 µM: 1 µM inhibitor. In a few lines: as §1

In another assay the target is T3, CAMK4 (Homo sapiens, UniProt Q16566).
T3 construct: purchased Nanosyn (enzymatic panel); SGC in-house recombinant human kinases (DSF panel); Invitrogen (ALK1-6)
T3 sequence (Q16566 1-473): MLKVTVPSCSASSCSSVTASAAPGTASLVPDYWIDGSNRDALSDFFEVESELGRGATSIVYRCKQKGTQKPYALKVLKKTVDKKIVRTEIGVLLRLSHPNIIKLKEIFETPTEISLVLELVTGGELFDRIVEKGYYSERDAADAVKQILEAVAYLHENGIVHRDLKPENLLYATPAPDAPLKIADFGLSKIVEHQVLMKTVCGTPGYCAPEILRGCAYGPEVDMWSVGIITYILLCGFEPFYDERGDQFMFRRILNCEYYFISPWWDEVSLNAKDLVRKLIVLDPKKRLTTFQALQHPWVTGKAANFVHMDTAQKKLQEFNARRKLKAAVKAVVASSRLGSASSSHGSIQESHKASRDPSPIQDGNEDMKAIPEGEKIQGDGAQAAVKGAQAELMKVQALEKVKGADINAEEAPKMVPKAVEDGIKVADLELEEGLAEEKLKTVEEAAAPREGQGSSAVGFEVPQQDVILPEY
The settings on record: read-out: Percentage inhibition; for inhibition at 0.1 µM: 0.1 µM inhibitor; for inhibition at 1 µM: 1 µM inhibitor. In a few lines: as §1

The next assay has as its target T4, FGFR2 (Homo sapiens, UniProt P21802).
T4 construct: purchased Nanosyn (enzymatic panel); SGC in-house recombinant human kinases (DSF panel); Invitrogen (ALK1-6)
The settings on record: read-out: Percentage inhibition; for inhibition at 0.1 µM: 0.1 µM inhibitor; for inhibition at 1 µM: 1 µM inhibitor. In a few lines:
as §1

The target in another assay is T5, PDGFRα (Homo sapiens, UniProt P16234).
T5 construct: purchased Nanosyn (enzymatic panel); SGC in-house recombinant human kinases (DSF panel); Invitrogen (ALK1-6)
T5 sequence (P16234 24-1089): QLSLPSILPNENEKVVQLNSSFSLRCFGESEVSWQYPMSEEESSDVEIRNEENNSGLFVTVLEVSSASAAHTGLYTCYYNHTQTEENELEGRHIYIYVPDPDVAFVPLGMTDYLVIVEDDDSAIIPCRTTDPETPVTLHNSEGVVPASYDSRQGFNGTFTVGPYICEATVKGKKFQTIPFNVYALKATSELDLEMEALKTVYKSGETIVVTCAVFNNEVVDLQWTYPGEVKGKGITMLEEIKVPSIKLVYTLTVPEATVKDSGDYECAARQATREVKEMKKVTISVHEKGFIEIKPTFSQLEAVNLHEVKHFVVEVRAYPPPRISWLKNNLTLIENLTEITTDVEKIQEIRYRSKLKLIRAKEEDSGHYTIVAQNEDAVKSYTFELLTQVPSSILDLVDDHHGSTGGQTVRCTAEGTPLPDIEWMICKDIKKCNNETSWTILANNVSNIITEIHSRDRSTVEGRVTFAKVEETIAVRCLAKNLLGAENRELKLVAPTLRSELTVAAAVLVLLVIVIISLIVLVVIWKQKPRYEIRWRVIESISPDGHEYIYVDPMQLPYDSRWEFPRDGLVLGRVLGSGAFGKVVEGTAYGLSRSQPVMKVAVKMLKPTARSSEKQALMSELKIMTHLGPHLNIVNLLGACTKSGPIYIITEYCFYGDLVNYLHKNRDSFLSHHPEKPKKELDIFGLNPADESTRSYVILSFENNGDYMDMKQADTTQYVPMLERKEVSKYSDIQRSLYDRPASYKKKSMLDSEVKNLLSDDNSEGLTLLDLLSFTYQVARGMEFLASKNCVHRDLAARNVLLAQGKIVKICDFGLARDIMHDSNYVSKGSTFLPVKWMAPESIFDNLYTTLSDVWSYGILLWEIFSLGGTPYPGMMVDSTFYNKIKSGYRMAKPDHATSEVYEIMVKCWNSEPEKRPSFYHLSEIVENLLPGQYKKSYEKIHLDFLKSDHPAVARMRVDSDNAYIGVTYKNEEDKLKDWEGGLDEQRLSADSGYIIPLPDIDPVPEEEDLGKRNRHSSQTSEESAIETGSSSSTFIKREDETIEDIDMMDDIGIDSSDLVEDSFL
The settings on record: read-out: Percentage inhibition; for inhibition at 0.1 µM: 0.1 µM inhibitor; for inhibition at 1 µM: 1 µM inhibitor. In a few lines: as §1

For another assay, the target named is T6, TNK1 (Homo sapiens, UniProt Q13470).
T6 construct: purchased Nanosyn (enzymatic panel); SGC in-house recombinant human kinases (DSF panel); Invitrogen (ALK1-6)
T6 sequence (Q13470 1-666): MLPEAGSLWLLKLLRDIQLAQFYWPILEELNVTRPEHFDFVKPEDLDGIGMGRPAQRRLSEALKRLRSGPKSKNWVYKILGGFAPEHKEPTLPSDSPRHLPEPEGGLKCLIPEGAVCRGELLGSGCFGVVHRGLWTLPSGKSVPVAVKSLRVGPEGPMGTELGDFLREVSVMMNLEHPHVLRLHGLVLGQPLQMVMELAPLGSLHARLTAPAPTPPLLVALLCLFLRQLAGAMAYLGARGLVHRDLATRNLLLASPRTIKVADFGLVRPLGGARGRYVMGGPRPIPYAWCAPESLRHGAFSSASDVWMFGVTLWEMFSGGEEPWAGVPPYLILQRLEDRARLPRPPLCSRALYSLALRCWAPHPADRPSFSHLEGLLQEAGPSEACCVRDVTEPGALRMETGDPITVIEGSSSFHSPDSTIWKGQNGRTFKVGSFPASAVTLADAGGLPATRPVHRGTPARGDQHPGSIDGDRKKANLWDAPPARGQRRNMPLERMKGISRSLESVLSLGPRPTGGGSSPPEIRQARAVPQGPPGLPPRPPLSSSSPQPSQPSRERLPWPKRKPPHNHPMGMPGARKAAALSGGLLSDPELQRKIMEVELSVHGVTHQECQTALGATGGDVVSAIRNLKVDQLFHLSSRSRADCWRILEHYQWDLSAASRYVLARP
The settings on record: read-out: Percentage inhibition; for inhibition at 0.1 µM: 0.1 µM inhibitor; for inhibition at 1 µM: 1 µM inhibitor. In a few lines: as §1

A further assay addresses T7, TNK2 (Homo sapiens, UniProt Q07912).
T7 construct: purchased Nanosyn (enzymatic panel); SGC in-house recombinant human kinases (DSF panel); Invitrogen (ALK1-6)
The settings on record: read-out: Percentage inhibition; for inhibition at 0.1 µM: 0.1 µM inhibitor; for inhibition at 1 µM: 1 µM inhibitor. In a few lines:
as §1

A further assay concerns the target T8, TXK (Homo sapiens, UniProt P42681).
T8 construct: purchased Nanosyn (enzymatic panel); SGC in-house recombinant human kinases (DSF panel); Invitrogen (ALK1-6)
T8 sequence (P42681 1-527): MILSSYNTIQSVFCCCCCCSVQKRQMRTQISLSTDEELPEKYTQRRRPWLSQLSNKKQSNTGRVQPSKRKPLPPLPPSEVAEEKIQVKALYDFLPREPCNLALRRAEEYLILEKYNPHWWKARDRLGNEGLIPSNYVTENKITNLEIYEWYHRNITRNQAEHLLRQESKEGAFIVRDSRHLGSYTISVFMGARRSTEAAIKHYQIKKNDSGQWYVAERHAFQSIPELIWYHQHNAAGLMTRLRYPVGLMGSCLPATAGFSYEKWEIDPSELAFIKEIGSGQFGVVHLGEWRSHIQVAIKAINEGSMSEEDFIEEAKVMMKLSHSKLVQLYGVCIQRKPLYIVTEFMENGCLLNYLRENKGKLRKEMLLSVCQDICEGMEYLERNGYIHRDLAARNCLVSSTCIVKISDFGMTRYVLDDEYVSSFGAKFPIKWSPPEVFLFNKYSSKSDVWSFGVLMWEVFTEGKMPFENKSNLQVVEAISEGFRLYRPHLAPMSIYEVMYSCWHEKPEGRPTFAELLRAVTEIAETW
The settings on record: read-out: Percentage inhibition; for inhibition at 0.1 µM: 0.1 µM inhibitor; for inhibition at 1 µM: 1 µM inhibitor. In a few lines: as §1

The mark [1] stands for this setting: read-out: Percentage inhibition.

Where “and” joins values, the source holds several entries; their conditions need not be identical. Equal values may be shown once.

T2 sequence (Q9UQM7 whole entry): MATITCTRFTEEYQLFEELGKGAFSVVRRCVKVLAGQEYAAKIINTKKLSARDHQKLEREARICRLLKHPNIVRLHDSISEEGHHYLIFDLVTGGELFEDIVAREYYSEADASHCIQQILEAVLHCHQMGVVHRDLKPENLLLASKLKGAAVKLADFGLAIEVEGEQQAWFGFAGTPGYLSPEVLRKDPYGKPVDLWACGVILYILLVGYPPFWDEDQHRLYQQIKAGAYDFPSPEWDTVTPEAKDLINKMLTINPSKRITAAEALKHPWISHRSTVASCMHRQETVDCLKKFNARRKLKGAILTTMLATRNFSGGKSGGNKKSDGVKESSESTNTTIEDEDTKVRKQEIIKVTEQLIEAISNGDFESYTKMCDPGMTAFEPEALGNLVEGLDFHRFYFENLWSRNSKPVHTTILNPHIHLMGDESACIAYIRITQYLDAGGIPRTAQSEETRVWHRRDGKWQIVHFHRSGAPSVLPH
T7 sequence (Q07912 whole entry): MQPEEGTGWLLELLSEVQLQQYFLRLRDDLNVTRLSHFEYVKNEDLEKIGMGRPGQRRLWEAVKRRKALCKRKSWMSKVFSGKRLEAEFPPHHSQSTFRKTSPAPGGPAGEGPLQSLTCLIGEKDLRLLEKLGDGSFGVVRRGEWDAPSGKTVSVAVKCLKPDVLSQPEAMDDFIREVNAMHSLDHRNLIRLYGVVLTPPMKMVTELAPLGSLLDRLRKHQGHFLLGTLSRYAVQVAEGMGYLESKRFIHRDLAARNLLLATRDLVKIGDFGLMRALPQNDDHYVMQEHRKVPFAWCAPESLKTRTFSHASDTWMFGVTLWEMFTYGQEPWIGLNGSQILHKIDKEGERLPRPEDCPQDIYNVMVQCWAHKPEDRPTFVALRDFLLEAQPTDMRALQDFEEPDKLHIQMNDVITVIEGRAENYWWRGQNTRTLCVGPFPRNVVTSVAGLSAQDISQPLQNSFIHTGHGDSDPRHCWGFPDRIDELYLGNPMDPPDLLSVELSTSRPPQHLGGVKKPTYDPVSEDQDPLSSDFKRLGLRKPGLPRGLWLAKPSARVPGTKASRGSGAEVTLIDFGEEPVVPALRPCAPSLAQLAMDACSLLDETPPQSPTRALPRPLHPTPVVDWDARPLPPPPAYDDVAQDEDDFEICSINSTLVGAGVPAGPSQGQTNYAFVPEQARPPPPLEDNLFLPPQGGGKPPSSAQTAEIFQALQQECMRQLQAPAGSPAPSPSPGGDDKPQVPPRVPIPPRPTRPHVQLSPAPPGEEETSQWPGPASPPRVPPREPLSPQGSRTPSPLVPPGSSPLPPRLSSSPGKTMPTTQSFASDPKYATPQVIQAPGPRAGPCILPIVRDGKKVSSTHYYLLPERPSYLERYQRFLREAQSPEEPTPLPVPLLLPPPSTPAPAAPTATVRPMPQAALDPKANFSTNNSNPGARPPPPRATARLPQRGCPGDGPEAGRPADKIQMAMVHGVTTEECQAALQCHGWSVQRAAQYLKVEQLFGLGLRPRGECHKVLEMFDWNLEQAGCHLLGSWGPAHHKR
T4 sequence (P21802 22-821): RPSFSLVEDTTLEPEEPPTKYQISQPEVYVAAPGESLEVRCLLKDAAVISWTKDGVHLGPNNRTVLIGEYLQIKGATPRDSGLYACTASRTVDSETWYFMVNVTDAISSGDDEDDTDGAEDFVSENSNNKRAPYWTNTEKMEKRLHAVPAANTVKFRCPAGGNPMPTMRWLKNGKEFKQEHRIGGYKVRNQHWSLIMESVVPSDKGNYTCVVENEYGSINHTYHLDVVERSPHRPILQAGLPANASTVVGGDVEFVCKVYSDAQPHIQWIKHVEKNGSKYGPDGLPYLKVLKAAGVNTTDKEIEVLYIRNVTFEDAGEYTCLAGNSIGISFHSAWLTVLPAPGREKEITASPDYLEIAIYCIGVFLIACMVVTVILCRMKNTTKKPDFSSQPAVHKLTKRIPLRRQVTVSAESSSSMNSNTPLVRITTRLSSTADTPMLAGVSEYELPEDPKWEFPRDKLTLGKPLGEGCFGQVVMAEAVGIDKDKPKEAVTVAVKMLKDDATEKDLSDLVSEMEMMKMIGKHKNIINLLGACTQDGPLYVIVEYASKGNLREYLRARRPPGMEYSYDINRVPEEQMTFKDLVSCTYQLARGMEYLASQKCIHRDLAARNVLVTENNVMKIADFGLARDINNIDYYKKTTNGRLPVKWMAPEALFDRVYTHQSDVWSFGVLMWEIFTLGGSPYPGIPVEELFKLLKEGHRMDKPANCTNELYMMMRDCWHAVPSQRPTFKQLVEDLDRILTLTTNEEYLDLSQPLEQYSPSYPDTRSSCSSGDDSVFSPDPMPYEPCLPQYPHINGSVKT
T1 sequence (P00519 whole entry): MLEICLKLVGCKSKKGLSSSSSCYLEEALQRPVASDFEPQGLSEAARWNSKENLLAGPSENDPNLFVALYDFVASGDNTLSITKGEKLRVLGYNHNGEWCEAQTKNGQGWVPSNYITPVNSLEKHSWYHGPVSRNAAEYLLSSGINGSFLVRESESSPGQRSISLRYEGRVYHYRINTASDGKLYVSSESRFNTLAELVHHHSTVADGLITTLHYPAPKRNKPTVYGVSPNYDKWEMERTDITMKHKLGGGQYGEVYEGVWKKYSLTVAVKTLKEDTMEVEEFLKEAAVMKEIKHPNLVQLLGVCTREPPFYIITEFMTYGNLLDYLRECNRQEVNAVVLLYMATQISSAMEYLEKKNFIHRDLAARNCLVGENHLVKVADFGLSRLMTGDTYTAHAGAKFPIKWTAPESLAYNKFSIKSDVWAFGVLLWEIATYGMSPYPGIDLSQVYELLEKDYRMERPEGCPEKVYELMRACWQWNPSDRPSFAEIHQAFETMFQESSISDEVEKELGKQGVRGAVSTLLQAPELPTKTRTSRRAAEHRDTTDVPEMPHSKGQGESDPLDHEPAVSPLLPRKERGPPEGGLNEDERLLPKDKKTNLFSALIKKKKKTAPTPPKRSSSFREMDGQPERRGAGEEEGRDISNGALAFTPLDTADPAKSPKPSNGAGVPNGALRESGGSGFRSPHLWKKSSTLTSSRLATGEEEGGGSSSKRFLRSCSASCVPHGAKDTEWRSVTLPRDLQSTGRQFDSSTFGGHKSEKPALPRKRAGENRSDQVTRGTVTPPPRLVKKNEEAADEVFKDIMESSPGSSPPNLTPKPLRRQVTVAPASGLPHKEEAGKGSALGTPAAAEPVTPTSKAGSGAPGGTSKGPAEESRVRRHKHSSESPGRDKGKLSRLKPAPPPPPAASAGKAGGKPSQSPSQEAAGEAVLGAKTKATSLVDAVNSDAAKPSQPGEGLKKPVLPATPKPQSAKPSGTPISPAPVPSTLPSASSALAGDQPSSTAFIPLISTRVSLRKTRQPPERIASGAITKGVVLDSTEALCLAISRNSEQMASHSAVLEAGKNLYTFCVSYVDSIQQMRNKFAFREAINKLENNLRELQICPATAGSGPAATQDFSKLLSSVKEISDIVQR

As a reminder, the inhibition is the drop in the measured response relative to a control, in per cent. `COc1cc(-c2cc(-c3cccc(O)c3)cnc2N)cc(OC)c1OC` [K02288, 3-[6-amino-5-(3,4,5-trimethoxy-phenyl)-pyridin-3-yl]-phenol]: at ABL1 (0.1 µM inhibitor), the Percentage inhibition was 79% and > 50%. The inhibition at 1 µM was 89% at ABL1 (setting [1]); -2% on CAMK2α; -1% on CAMK4; 1.1% at FGFR2; 37% at PDGFRα; 10% at TNK1. In addition, the inhibition at 1 µM turned out to be 31% at TNK2 and 36% at TXK. Moreover, the inhibition at 0.1 µM is -2% at CAMK2α; -1% at CAMK4; 0.3% at FGFR2; 5.3% at PDGFRα; 0.4% at TNK1; 3.6% on TNK2. Moreover, the inhibition at 0.1 µM at TXK was 2.8%.

On to `c1ccc2c(-c3cnn4cc(-c5ccc(N6CCNCC6)cc5)cnc34)ccnc2c1` [LDN-193189], for which the Percentage inhibition at ABL1 (0.1 µM inhibitor) is on record as > 50%. Besides, the inhibition at 0.1 µM at ABL1 (0.1 µM inhibitor, read-out: Percentage inhibition) is 62%; on CAMK2α, 0%; at CAMK4, 0.1%; at FGFR2, 5%; on PDGFRα it was 18%; at TNK1 it was 18%. The inhibition at 0.1 µM was 2% at TNK2 and 4.1% at TXK. The inhibition at 1 µM is 84% at ABL1 (setting [1]); -8% on CAMK2α; 0% on CAMK4; 18% on FGFR2; 56% at PDGFRα; 63% on TNK1. The inhibition at 1 µM at TNK2 stood at 10%; at TXK, 16%.
